Results taken from patent US7884077B2, “Methods for the treatment of mood disorders” (The McLean Hospital Corporation, priority 2006, dated 2011).
“Also recorded” adds a separate entry of the source.

What was measured:
[1] = tested on: sigma receptors; settings: Bidlack et al., 2000; cited from earlier work
[2] = target: KOR (Homo sapiens, UniProt P41145); settings: Zhu et al., 1997; cited from earlier work
[3] = tested on: human subjects who have been diagnosed with bipolar disorder and are acutely manic; test: Open-label cumulative-dosing clinical trial of pentazocine in acutely manic subjects; assay type: in vivo; settings: for YMRS mean: morning
Experimental: A trial study was conducted to determine the effect of pentazocine on the mood of human subjects who have been diagnosed with bipolar disorder and are acutely manic. Ten subjects (7 male and 3 female) between the ages of 18 and 65 were enrolled in the study. All subjects were admitted to the hospital with a primary diagnosis of bipolar mania by DSMIV criteria. […] Subjects with a current history of substance abuse or a recent history of opiate dependence were excluded. All subjects were deemed competent to give informed consent by non-study physicians. After complete description of the study to the subjects, written informed consent was obtained.
The current study was undertaken in full compliance with federal requirements and with institutional review board approval. The study was designed as an open-label cumulative-dosing trial.
The three-day study consisted of pre-treatment, treatment, and post-treatment days with subjects rated in the morning on all three days and multiple times on the day of treatment. On the treatment day, an initial 50 mg of pentazocine was given by mouth. A second dose was given two hours following the initial dose. Pentazocine was given as Talwin Nx (Sanofi-Synthlabo), consisting of 50 mg dose pentazocine with 0.5 mg naloxone (naloxone is added to limit the intra-venous abuse potential of this drug but is not absorbed when given by oral administration as used here).
Assessment of manic symptoms by YMRS were made daily at the same time in the morning on all three days of the study. As the YMRS was designed to reflect the past 48 hours, it is not sensitive to acute symptomatic change (IsHak et al, 2002) YMRS and DSMIV criteria were used as the basis for constructing a scale to detect acute changes in manic symptoms (The Mania Acute Change Scale or MACS). […] The MACS scale is available online at www.mcleanhospital.org. The MACS, which includes items from the YMRS and a brief assessment of dysphoria/depression was given along with the YMRS in the morning on all three days of the study. In addition, the MACS was given hourly for 6 hours starting with the first dose of pentazocine. All investigator ratings were performed by investigator Beth Murphy, M. D., Ph.D. A self-rating scale designed to assess manic symptoms and medication side effects was completed by subjects whenever the MACS was given. Staff reports were reviewed, with special note of the duration of sleep and whether any ‘pro re nata’ (PRN) medications were required. Data were analyzed using a repeated measures ANOVA (SPSS 14.0).

[4] = target: mu opiate receptors (Homo sapiens, UniProt P35372); settings: Bidlack et al., 2000; cited from earlier work
Sequence of mu opiate receptors (P35372 whole entry): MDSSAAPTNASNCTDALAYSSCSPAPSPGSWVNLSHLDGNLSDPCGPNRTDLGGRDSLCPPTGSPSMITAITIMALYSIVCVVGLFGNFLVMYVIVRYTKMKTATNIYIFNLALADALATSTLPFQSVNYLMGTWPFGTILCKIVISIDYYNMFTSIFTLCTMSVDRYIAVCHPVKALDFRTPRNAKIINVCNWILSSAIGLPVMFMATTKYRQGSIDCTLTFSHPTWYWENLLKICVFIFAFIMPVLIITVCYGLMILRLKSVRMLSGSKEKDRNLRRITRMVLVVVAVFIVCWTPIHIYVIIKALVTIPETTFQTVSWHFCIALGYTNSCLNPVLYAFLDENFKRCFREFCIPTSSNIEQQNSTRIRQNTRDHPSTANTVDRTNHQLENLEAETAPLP

[5] = 50 mg by mouth at Hour 0 and Hour 2, hourly ratings
[6] = one hour after first 50 mg oral dose
[7] = second 50 mg oral dose given at hour 2

Sequence of KOR (P41145 whole entry): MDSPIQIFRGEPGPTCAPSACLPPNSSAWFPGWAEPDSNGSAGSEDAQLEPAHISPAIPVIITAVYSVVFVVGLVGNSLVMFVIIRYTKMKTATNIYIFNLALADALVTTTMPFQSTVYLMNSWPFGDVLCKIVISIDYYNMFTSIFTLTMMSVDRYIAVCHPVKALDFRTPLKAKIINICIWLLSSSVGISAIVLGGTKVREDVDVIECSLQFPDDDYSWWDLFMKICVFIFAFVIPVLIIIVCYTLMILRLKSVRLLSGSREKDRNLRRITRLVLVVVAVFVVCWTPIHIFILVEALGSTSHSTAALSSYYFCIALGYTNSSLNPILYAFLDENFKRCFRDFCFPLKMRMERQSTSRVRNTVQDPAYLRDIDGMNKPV

CC(C)=CCN1CCC2(C)c3cc(O)ccc3CC1C2C (centres unmarked) [pentazocine]
affinity and effects at sigma receptors relative to KOR [1]: lower affinity and weaker effects | efficacy at KOR [2]: partial agonist | dysphoria ([3]; 50 mg by mouth at Hour 0 and Hour 2): No dysphoria was reported; also recorded: None of the subjects complained of dysphoria | effect on manic symptoms (total MACS score) [3, 5]: manic symptoms decreased; also recorded: All subjects experienced an improvement in manic symptoms; also recorded: transient but substantial and statistically significant reduction in manic symptoms | effect on psychotic symptoms (clinician rating) [3, 5]: no significant changes in psychosis; also recorded: No subject experienced exacerbation of psychotic symptoms; also recorded: most subjects experienced a mild improvement in psychotic symptoms | sedation (clinician rating, scale of 0-4) [3, 5]: mild (half-point), nonsignificant, increases in sedation; also recorded: Sedation was low | mean total MACS score ([3]; Hour 0 (baseline), before first dose): 20.1 | mean total MACS score ([3]; hour 2, when second dose was given): 18.6 | mean total MACS score ([3]; hour 3, one hour after second 50 mg oral dose): 11.0 | mean change in total manic symptom ratings (MACS) from baseline [3, 6]: −8.8 | mean total MACS score [3, 6]: 11.3 | mean change in total manic symptom ratings from baseline (decrease) ([3]; one hour after first 50 mg oral dose, MACS, 10 subjects): 44% | rebound in symptoms after treatment ([3]; post-treatment day): no evidence of a rebound in symptoms after treatment | YMRS mean ([3]; post-treatment day): 12.7 ± 8.4 | YMRS mean ([3]; pretreatment day): 23.6 ± 8.9 | fall in mean MACS score between hour 2 and hour 3 [3, 7]: 7.6 points | fall in mean total manic symptom ratings (MACS) between hour 2 and hour 3 [3, 7]: 41% | YMRS mean ([3]; treatment day): 22.0 ± 6.9 | tolerability / side effects ([3]; two 50 mg oral doses two hours apart): well-tolerated; also recorded: No subject experienced significant side effects; also recorded: No adverse effects, including psychotomimetic effects, were observed or reported | affinity and effects at mu opiate receptors relative to KOR [4]: lower affinity and weaker effects
